Test results as given in publication PMC11887051, “Discovery of ONO-2920632 (VU6011887): A Highly Selective and CNS Penetrant TREK-2 (TWIK-Related K+ Channel 2) Preferring Activator In Vivo Tool Compound” (ACS Chemical Neuroscience, 2025).
Values joined by “and” are separate entries in the source; they are usually repeats but may differ in a detail not shown here. Equal values may be shown once. Read-outs that look alike come from different tables or passages of the source. Values belong to the compound of their own block, whether it stands above or below them.

What was measured:
[1] = rat PK study; assay type: in vivo; conditions: plasma; for clearance: read-out: rat CLp; for Vd: read-out: rat Vss; for half-life: read-out: rat t1/2 (converted)
[2] = molecular target: T1, mouse TREK-1 (Mus musculus, UniProt P97438); experiment: mouse TREK-1 MPC assay; assay type: cell-based; conditions: manual patch clamp
T1 sequence (P97438 1-426): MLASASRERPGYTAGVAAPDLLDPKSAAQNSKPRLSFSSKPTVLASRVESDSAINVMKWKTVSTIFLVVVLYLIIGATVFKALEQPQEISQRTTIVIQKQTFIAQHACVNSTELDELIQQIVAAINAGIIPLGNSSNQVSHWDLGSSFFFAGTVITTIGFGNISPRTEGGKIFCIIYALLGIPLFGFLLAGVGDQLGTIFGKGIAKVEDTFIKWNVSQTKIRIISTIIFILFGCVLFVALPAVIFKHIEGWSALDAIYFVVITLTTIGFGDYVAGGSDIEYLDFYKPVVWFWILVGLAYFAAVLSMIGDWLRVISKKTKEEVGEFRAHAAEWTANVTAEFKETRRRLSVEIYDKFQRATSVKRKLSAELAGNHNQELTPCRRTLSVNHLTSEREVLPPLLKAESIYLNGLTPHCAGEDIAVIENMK

[3] = molecular target: T2, mouse TREK-2 (Mus musculus, UniProt Q8BUW1); experiment: mouse TREK-2 MPC assay; assay type: cell-based; conditions: for EC50 / Emax: mouse, manual patch clamp; for TREK-2 preference (mouse MPC): TREK-2 over TREK-1, mouse MPC
T2 sequence (Q8BUW1 1-535): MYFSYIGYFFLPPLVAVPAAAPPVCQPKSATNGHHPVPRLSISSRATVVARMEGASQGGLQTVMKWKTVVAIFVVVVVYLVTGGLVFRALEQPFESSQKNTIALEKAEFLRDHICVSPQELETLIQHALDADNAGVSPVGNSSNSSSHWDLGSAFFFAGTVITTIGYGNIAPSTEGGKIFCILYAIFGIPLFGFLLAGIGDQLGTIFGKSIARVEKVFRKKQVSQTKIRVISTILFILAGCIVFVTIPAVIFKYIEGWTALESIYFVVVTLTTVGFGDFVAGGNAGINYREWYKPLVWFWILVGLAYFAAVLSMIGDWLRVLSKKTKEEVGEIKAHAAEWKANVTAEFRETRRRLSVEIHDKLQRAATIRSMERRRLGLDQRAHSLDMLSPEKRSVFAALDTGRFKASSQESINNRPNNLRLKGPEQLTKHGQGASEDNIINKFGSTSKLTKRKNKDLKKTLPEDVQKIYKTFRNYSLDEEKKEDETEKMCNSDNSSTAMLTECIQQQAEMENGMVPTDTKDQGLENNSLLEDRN

[4] = mouse predicted hepatic clearance; assay type: in vitro ADME
Description: Intrinsic clearance: Human or rat hepatic microsomes (0.5 mg/mL) and 1 µM test compound were incubated in 100 mM potassium phosphate pH 7.4 buffer with 3 mM MgCl2 at 37 °C with constant shaking. After a 5 min preincubation, the reaction was initiated by the addition of NADPH (1 mM). At selected time intervals (0, 3, 7, 15, 25, and 45 min), aliquots were taken and subsequently placed into a 96-well plate containing cold acetonitrile with internal standard (50 ng/mL carbamazepine). Plates were then centrifuged at 3000 rcf (4 °C) for 10 min, and the supernatant was transferred to a separate 96-well plate and diluted 1:1 with water for LC/MS/MS analysis. The in vitro half-life ( 1/2, min, Eq. 1), intrinsic clearance (CLint, mL/min/kg, Eq. 2), and subsequent predicted hepatic clearance (CLhep, mL/min/kg, Eq. 3) was determined employing the […]
where k represents the slope from linear regression analysis of the natural log percent remaining of a test compound as a function of incubation time […]
(2) CLint = in vitroT1/2 x mg microsomes x gram liver x kg body wt ascale-up factors: of 20 (human) or 45 (rat) […]
where Qh (hepatic blood flow, mL/min/kg) is 21 (human) or 70 (rat).
LC/MS/MS Bioanalysis of Samples from Plasma Protein Binding and Intrinsic Clearance […]
Samples were analyzed on a Thermo Electron TSQ Quantum Ultra triple quad mass spectrometer (San Jose, CA) via electrospray ionization (ESI) with two Themo Electron Accella pumps (San Jose, CA), and a Leap Technologies CTC PAL autosampler (Carrboro, NC). Analytes were separated by gradient elution on a dual column system with two Thermo Hypersil Gold (2.1 x 30 mm, 1.9 µm) columns (San Jose, CA) thermostated at 40 °C. HPLC mobile phase A was 0.1% formic acid in water and mobile phase B was 0.1% formic acid in acetonitrile. The gradient started […]
for 0.2 min; returned to 10% B in 0.1 min. The total run time was 1.3 min and the HPLC flow rate was 0.8 mL/min. […]

[5] = mouse plasma protein binding; assay type: in vitro ADME; conditions: pH 7.4, read-out: mouse plasma fu
Description: In vitro Plasma protein binding and Brain homogenate binding: Determination of fraction unbound (f u) in plasma was conducted in vitro via equilibrium dialysis using HTDialysis (HTD) membrane plates. The top half of the plate was filled with 100 uL of Dubelco’s Phosphate Buffered Saline, pH 7.4 (DPBS). Compounds were diluted into plasma from each species (5 µM final concentration), which was aliquoted in triplicate to the ‘bottom half’ of the prepared HTD plate wells. The HTD plate was sealed and incubated for 6 hours at 37 °C. Following incubation, each well (both top and bottom halves) were transferred (20 µL) to the corresponding wells of a 96-shallow-well (V-bottom) plate. The daughter plates were then matrix-matched (DPBS side wells received equal volume of plasma, and plasma side wells received equal volume of DPBS), and extraction solution (120 µL; acetonitrile containing 50 nM carbamazepine as IS) was added to all wells of both daughter plates to precipitate protein and extract test article. The plates were then sealed and centrifuged (3500 rcf) for 10 minutes at ambient temperature. Supernatant (60 µL) from each well of the daughter plates was then transferred to the corresponding wells of new daughter plates (96-shallow-well, V bottom) containing water (Milli-Q, 60 µL/well), and the plates were sealed in preparation for LC-MS/MS analysis (see LC-MS/MS analysis method below).
The unbound fraction (f u) was calculated following the equation below, and mean values for each species were calculated from 3 replicates. […]
Fraction unbound for both plasma and brain samples was determined using Equation 4.
Equation 4 Determination of fraction unbound in plasma. […]

[6] = system: TASK-1; experiment: human 86Rb flux K2P selectivity panel; assay type: cell-based; conditions: 86Rb flux K2P panel
[7] = system: TASK-2; experiment: human 86Rb flux K2P selectivity panel; assay type: cell-based; conditions: 86Rb flux K2P panel
[8] = system: TASK-3; experiment: human 86Rb flux K2P selectivity panel; assay type: cell-based; conditions: 86Rb flux K2P panel
[9] = system: TRAAK; experiment: human 86Rb flux K2P selectivity panel; assay type: cell-based; conditions: 86Rb flux K2P panel
[10] = Sprague-Dawley, intravenous, rat cassette PK study

SMILES: CS(=O)(=O)Nc1ccc(C(=O)NCc2ccc(Cl)cc2Cl)cc1 [Compound 13]
clearance ([1]; rat PK profile): 3.5 mL/min/kg
Vd ([1]; rat PK profile): 0.787 L/kg
half-life ([1]; rat PK profile): 3 h

SMILES: O=C(NCc1ccc(OC(F)(F)F)cc1F)c1ccc2ncnn2c1 [Compound 19b]
EC50 [2]: 2700 nM
Emax [2]: 109%
TREK-2 preference (mouse MPC) [3]: 4.7 fold
EC50 [3]: 570 nM
Emax [3]: 105%
mouse CLhep (predicted hepatic clearance) [4]: 17.8 mL/min/kg
fraction unbound at 6 h, 5 µM [5]: 0.24
selectivity against TASK-1 over TREK-2 [6]: > 150 fold
selectivity against TASK-2 over TREK-2 [7]: > 150 fold
selectivity against TASK-3 over TREK-2 [8]: > 150 fold
selectivity against TRAAK over TREK-2 [9]: > 150 fold

SMILES: O=C(NCc1ccc(OC(F)(F)F)cc1Cl)c1ccc2nncn2c1 [Compound 20]
selectivity against TASK-1 over TREK-1/2 [6]: > 91 fold and > 85 fold
selectivity against TASK-2 over TREK-1/2 [7]: > 91 fold and > 85 fold
selectivity against TASK-3 over TREK-1/2 [8]: > 91 fold and > 85 fold
selectivity against TRAAK over TREK-1 [9]: 85 fold and > 85 fold

Now from value to compound:

EC50 [2]: 1900 nM
Emax [2]: 94%
EC50 [3]: 610 nM
Emax [3]: 97%
mouse CLhep (predicted hepatic clearance) [4]: 33.0 mL/min/kg
fraction unbound at 6 h, 5 µM [5]: 0.022
clearance [1, 10]: 20.5 mL/min/kg
Vd [1, 10]: 1.5 L/kg
half-life [1, 10]: 1.1 h
SMILES: O=C(NCc1ccc(Br)cc1Cl)c1ccc(-c2ncn[nH]2)cc1 [Compound 14a]

EC50 [2]: 5000 nM
Emax [2]: 106%
TREK-2 preference (mouse MPC) [3]: 33 fold
EC50 [3]: 150 nM
Emax [3]: 105%
mouse CLhep (predicted hepatic clearance) [4]: 30.5 mL/min/kg
fraction unbound at 6 h, 5 µM [5]: 0.1
SMILES: Cc1cc(OC(F)(F)F)ccc1CNC(=O)c1ccc2ncnn2c1 [Compound 19a]
